Key:
[1] = system: beet plant; assay: Pre-harvest foliar spraying of ethylene-releasing compound on beet leaves, betalain concentration of roots versus unsprayed controls; format: in vivo, Beta vulgaris
Source text: In one embodiment, the method comprises the pre-harvest foliar spraying of an ethylene-releasing compound on a beet plant, wherein the pre-harvest foliar spraying of an ethylene-releasing compound leaves the mean betalain concentration in the roots of the treated plants increased by more than 200% when compared to controls without any spraying.
The method described herein may be used for commercially-relevant, large scale production of a betalain pigment, e.g., the large scale isolation from a beet crop plant. Accordingly, it may be that the isolation of betalains of step (iii) is done from at least 15 different harvested beet plants, more preferably from at least 100 different harvested beet plants, even more preferably from at least 500 different harvested beet plants, or such as from at least 1000 different harvested beet plants. It is evident that when at least 15 different harvested beet plants are used in isolation step (iii), then foliar spraying of ethylene-releasing compound (e.g., 2-Chloroethylphosphonic acid) of step (i) has been done on at least 15 different beet plants and in step (ii), at least 15 different crop plants have been harvested. As discussed above, the present inventors identified that by pre-harvest foliar spraying of 2-Chloroethylphosphonic acid (e.g., 2-Chloroethylphosphonic acid) on beet leaves the mean betalain concentration of treated plants increased by an increased amount when compared to controls without any spraying.
Preferably, the amount of isolated betalain pigment in step (iii) of the method is an amount of betalain pigment which is at least 15% higher (w/w), more preferably at least 20/a higher (w/w), even more preferably at least 25% higher (w/w), and most preferably at least 35% higher (w/w), as compared to the amount of betalain pigment that is isolated in a control experiment without use of the ethylene-releasing compound in step (i). The purpose of a control experiment is to analyze the effect of using ethylene-releasing compound (e.g. 2-Chloroethylphosphonic acid). […]

[2] = system: red beet (Beta vulgaris); assay: Greenhouse testing: foliar spray of Ethephon on crop plants, pigment content of roots at harvest; format: in vivo; conditions: for Betanin / Vulgaxanthin: greenhouse, spray rate not given
Protocol: Planting of varieties were staggered across several weeks to vary maturity for one spray. Two spray rates were administered across all plants on one spray date ([…]). Harvesting was done 3-4 weeks after spray. Initial visualization was performed prior to crop samples sent to laboratory for evaluation.

[3] = harvest 7, 10, 13, 16, 19, 22, 25, 26, 29 and 35 weeks after planting, every harvest point

O=P(O)(O)CCCl [Ethephon, 2-Chloroethylphosphonic acid]
mean betanin concentration of treated roots [1, 3]: higher
mean vulgaxanthin concentration of treated roots [1, 3]: higher
mean betalain concentration of treated plants compared to controls without any spraying ([1]; pre-harvest foliar spraying on beet leaves): increased
Betanin ([2]; beet variety Chioggia): 320 mg/kg, dry basis
Vulgaxanthin ([2]; beet variety Chioggia): 380 mg/kg, dry basis
Anthocyanin levels ([2]; carrots, beets and radishes, spray 120 g/h and 360 g/h, harvest 3-4 weeks after spray): Enhanced
Betanin ([2]; red beet variety Nochowski): 9,400 mg/kg, dry basis
Vulgaxanthin ([2]; red beet variety Nochowski): 6,700 mg/kg, dry basis
Betanin ([2]; red beet variety Red Cloud): 6,000 mg/kg, dry basis
Vulgaxanthin ([2]; red beet variety Red Cloud): 3,300 mg/kg, dry basis
Betanin ([2]; red beet variety Ruby Queen): 3,500 mg/kg, dry basis
Vulgaxanthin ([2]; red beet variety Ruby Queen): 800 mg/kg, dry basis

Source: patent US20230172132A1, “A METHOD FOR […] CONTENT IN A CROP PLANT” (SENSIENT COLORS, LLC, priority 2020, published 2023)
